Test results: patent US20070128217A1 (priority 2003, published 2007)

Columns and labels:
[1] = system: recombinant human anti-SARS-CoV antibody 03-018; assay type: binding; parameters: Binding of antibody 03-018 to linear peptides of the N protein of SARS-CoV Urbani / Binding of antibody 03-018 to looped/cyclic peptides of the N protein of SARS-CoV Urbani: unit not given here
[2] = system: rabbit serum obtained by immunizing a rabbit with the SARS-CoV strain Frankfurt 1; assay type: binding; parameters: Binding of a rabbit serum to linear peptides / Binding of a rabbit serum to looped peptides / Rabbit serum linear peptides / Rabbit serum looped peptides / Binding of a rabbit serum to linear peptides of protein N of SARS-CoV Urbani (Rabbit serum linear peptides) / Binding of a rabbit serum to looped/cyclic peptides of protein N of SARS-CoV Urbani (Rabbit serum looped peptides): unit not given here
[3] = system: control sera (pooled serum of ten healthy LUMC hospital workers; commercial negative donor pooled serum from the Dutch bloodbank); assay type: binding, human; parameters: Binding of Control serum LUMC to linear peptides / Binding of Control serum Blood-bank to linear peptides / Binding of Control serum LUMC to looped peptides / Binding of Control Serum Blood-Bank to Looped peptides / Binding of Control serum LUMC to linear peptides of the protein M of SARS-CoV Urbani / Binding of Control serum Blood-bank to linear peptides of the protein M of SARS-CoV Urbani / Binding of Control serum LUMC to looped peptides of the protein M of SARS-CoV Urbani / Binding of Control Serum Blood-Bank to Looped peptides of the protein M of SARS-CoV Urbani: unit not given here
[4] = system: antibodies in sera from SARS patients (sera 1a, 1b, 2, 6, 37, 62, London, SARS-yellow, SARS-green); assay type: binding, human; parameters: Binding of serum 6 to linear peptides of protein X1 of SARS-CoV Urbani / Binding of serum 37 to linear peptides of protein X1 of SARS-CoV Urbani / Binding of serum 6 to looped/cyclic peptide (PEPSCAN-ELISA) / Binding of serum 37 to looped/cyclic peptide (PEPSCAN-ELISA) / Binding of serum 37 to looped/cyclic peptides of protein X1 of SARS-CoV Urbani / Binding of serum 6 to linear peptides of protein X2 / Binding of serum 37 to linear peptides of protein X2 / Binding of serum 37 to looped/cyclic peptides of protein X2 of SARS-CoV Urbani / Binding of serum 6 to linear peptides of protein M of SARS-CoV Urbani / Binding of serum 37 to linear peptides of protein M of SARS-CoV Urbani / Binding of serum 6 to looped/cyclic peptides of protein M of SARS-CoV Urbani / Binding of serum 37 to looped/cyclic peptides of protein M of SARS-CoV Urbani / Binding of serum 6 to linear peptides of protein X3 of SARS-CoV Urbani / Binding of serum 37 to linear peptides of protein X3 of SARS-CoV Urbani / Binding of serum 37 to looped/cyclic peptides of protein X3 of SARS-CoV Urbani / Binding of serum 6 to linear peptides of protein X4 of SARS-CoV Urbani / Binding of serum 37 to linear peptides of protein X4 of SARS-CoV Urbani / Binding of serum 37 to looped/cyclic peptides of protein X4 of SARS-CoV Urbani / Binding of serum 6 to linear peptides of protein X5 of SARS-CoV Urbani / Binding of serum 37 to linear peptides of protein X5 of SARS-CoV Urbani / Binding of serum 37 to looped/cyclic peptides of protein X5 of SARS-CoV Urbani / Binding of serum 6 to linear peptides of protein N of SARS-CoV Urbani / Binding of serum 37 to linear peptides of protein N of SARS-CoV Urbani / Binding of serum 6 to linear peptide (PEPSCAN-ELISA) / Binding of serum 1a to looped/cyclic peptides of protein N of SARS-CoV Urbani / Binding of serum 1b to looped/cyclic peptides of protein N of SARS-CoV Urbani / Binding of serum 2 to looped/cyclic peptides of protein N of SARS-CoV Urbani / Binding of serum 6 to looped/cyclic peptides of protein N of SARS-CoV Urbani / Binding of serum 37 to looped/cyclic peptides of protein N of SARS-CoV Urbani / Binding of serum 62 to looped/cyclic peptides of protein N of SARS-CoV Urbani / Binding of serum London to looped/cyclic peptides of protein N of SARS-CoV Urbani / Binding of serum SARS-green to looped/cyclic peptides of protein N of SARS-CoV Urbani: unit not given here

Sequence	Binding of antibody 03-018 to linear peptides of the N protein of SARS-CoV Urbani [1]	Binding of antibody 03-018 to looped/cyclic peptides of the N protein of SARS-CoV Urbani [1]	Binding of a rabbit serum to linear peptides of protein N of SARS-CoV Urbani (Rabbit serum linear peptides) [2]	Binding of a rabbit serum to looped/cyclic peptides of protein N of SARS-CoV Urbani (Rabbit serum looped peptides) [2]	Binding of Control Serum Blood-Bank to Looped peptides [3]	Binding of Control serum Blood-bank to linear peptides [3]	Binding of Control serum LUMC to linear peptides [3]	Binding of Control serum LUMC to looped peptides [3]	Binding of serum 1a to looped/cyclic peptides of protein N of SARS-CoV Urbani [4]	Binding of serum 1b to looped/cyclic peptides of protein N of SARS-CoV Urbani [4]	Binding of serum 2 to looped/cyclic peptides of protein N of SARS-CoV Urbani [4]	Binding of serum 6 to looped/cyclic peptides of protein N of SARS-CoV Urbani [4]	Binding of serum 37 to looped/cyclic peptides of protein N of SARS-CoV Urbani [4]	Binding of serum 62 to looped/cyclic peptides of protein N of SARS-CoV Urbani [4]	Binding of serum London to looped/cyclic peptides of protein N of SARS-CoV Urbani [4]	Binding of serum SARS-green to looped/cyclic peptides of protein N of SARS-CoV Urbani [4]	Binding of serum SARS-yellow to looped/cyclic peptides of protein N of SARS-CoV Urbani [4]	other results
RRATRRVRGGDGKMK	0.1	0.2	0.6	0.1	0.4	0.8	0.8	0.3	0.2	0.1	0.1	0.1	0.4	0.3	0.2	0.0	0.2	Binding of serum 1a to linear peptides of protein N of SARS-CoV Urbani [4]: 0.2; Binding of serum 1b to linear peptides of protein N of SARS-CoV Urbani [4]: 0.1; Binding of serum 2 to linear peptides of protein N of SARS-CoV Urbani [4]: 0.3; Binding of serum 6 to linear peptides of protein N of SARS-CoV Urbani [4]: 0.3; Binding of serum 37 to linear peptides of protein N of SARS-CoV Urbani [4]: 0.8; Binding of serum 62 to linear peptides of protein N of SARS-CoV Urbani [4]: 0.7; Binding of serum London to linear peptides of protein N of SARS-CoV Urbani [4]: 0.5; Binding of serum SARS-green to linear peptides of protein N of SARS-CoV Urbani [4]: 0.3; Binding of serum SARS-yellow to linear peptides of protein N of SARS-CoV Urbani [4]: 0.6
RRGPEQTQGNFGDQD	0.1	0.2	0.1	0.1	0.3	0.6	0.6	0.4	0.3	0.2	0.2	0.1	0.4	0.2	0.2	0.6	0.4	Recognition of the peptide by sera of SARS-CoV infected individuals, and form (linear, looped/cyclic) in which it is recognized [4]: recognized in linear form
